# Assay results reported in ChEMBL document CHEMBL3763138, “Synthesis and bioactivity of novel triazole incorporated benzothiazinone derivatives as antitubercular and antioxidant agent” (Bioorg Med Chem Lett, 2016).
# Key:
# [1] = Antioxidant activity assessed as DPPH radical scavenging activity by spectrophotometric assay; format: physicochemical
# [2] = (§1) Cytotoxicity against human A549 cells assessed as growth inhibition after 48 hrs by MTT assay; format: cell-based; conditions: A549 cells
# [3] = tested on: A549; test: as §1; format: cell-based; conditions: a549, 48 h
# [4] = tested on: Mycobacterium tuberculosis; test: Antitubercular activity against Mycobacterium tuberculosis H37Ra ATCC 25177 at 3 ug/ml by XTT Reduction Menadione Assay; format: functional
# [5] = tested on: A-431; test: Antiproliferative activity against human A431 cells at 30 ug/ml after 48 hrs by MTT assay; format: cell-based; conditions: a-431, 48 h
# [6] = Cytotoxicity against human A431 cells assessed as growth inhibition after 48 hrs by MTT assay; format: cell-based, A-431
# [7] = tested on: HeLa; test: Antiproliferative activity against human HeLa cells at 30 ug/ml after 72 hrs by MTT assay; format: cell-based
# [8] = tested on: Mycobacterium tuberculosis; test: Antitubercular activity against Mycobacterium tuberculosis H37Ra ATCC 25177 at 30 ug/ml by XTT Reduction Menadione Assay; format: functional
# [9] = tested on: A-431; test: Antiproliferative activity against human A431 cells at 3 ug/ml after 48 hrs by MTT assay; format: cell-based; conditions: a-431, 48 h
# [10] = tested on: A549; test: Antiproliferative activity against human A549 cells at 10 ug/ml after 48 hrs by MTT assay; format: cell-based; conditions: a549, 48 h
# [11] = tested on: A549; test: Antiproliferative activity against human A549 cells at 30 ug/ml after 48 hrs by MTT assay; format: cell-based; conditions: a549, 48 h
# [12] = tested on: Mycobacterium tuberculosis; test: Antitubercular activity against Mycobacterium tuberculosis H37Ra ATCC 25177 by XTT Reduction Menadione Assay; format: functional, organism-based
# [13] = tested on: HeLa; test: Antiproliferative activity against human HeLa cells at 3 ug/ml after 72 hrs by MTT assay; format: cell-based
# [14] = tested on: HeLa; test: (§2) Cytotoxicity against human HeLa cells assessed as growth inhibition after 72 hrs by MTT assay; format: cell-based; conditions: hela, 72 h
# [15] = as §2; format: cell-based; conditions: HeLa cells
# [16] = tested on: A549; test: Antiproliferative activity against human A549 cells at 3 ug/ml after 48 hrs by MTT assay; format: cell-based; conditions: a549, 48 h
# [17] = tested on: Mycobacterium tuberculosis; test: Antitubercular activity against Mycobacterium tuberculosis H37Ra ATCC 25177 at 10 ug/ml by XTT Reduction Menadione Assay; format: functional
# [18] = tested on: HeLa; test: Antiproliferative activity against human HeLa cells at 10 ug/ml after 72 hrs by MTT assay; format: cell-based
# [19] = tested on: A-431; test: Antiproliferative activity against human A431 cells at 10 ug/ml after 48 hrs by MTT assay; format: cell-based; conditions: a-431, 48 h
# [20] = Selectivity index, ratio of GI50 for human HeLa cells to MIC for Mycobacterium bovis BCG ATCC 35743; format: toxicity, cell-based; conditions: pooled result: one value given for 3 cell lines, strains, targets or settings, read-out: Selectivity Index
# [21] = Selectivity index, ratio of GI50 for human HeLa cells to MIC for Mycobacterium tuberculosis H37Ra ATCC 25177; format: toxicity, cell-based; conditions: pooled result: one value given for 3 cell lines, strains, targets or settings, read-out: Selectivity Index
SMILES,IC50 [1],GI50 at 48 h [2],MIC [3],inhibition at 3 µg/mL [4],Activity [5],GI50 at 48 h [6],Activity [7],inhibition at 30 µg/mL [8],Activity [9],Activity [10],Activity [11],IC50 [12],MIC [12],Activity [13],GI50 [14],GI50 at 72 h [15],Activity [16],inhibition at 10 µg/mL [17],Activity [18],Activity [19],other results
Cc1cc(C(C)(C)C)c(O)c(C(C)(C)C)c1 [BUTYLATED HYDROXYTOLUENE],16.47 µg/mL,,,,,,,,,,,,,,,,,,,,
O=C1CSc2ccccc2N1Cc1cn(Cc2cccc([N+](=O)[O-])c2)nn1,34.12 µg/mL,> 30 µg/mL,> 30 µg/mL,34.8%,15.6%,> 30 µg/mL,20.1%,60.2%,13.9%,0%,-11.78%,12.4 µg/mL,> 30 µg/mL,0%,> 30 µg/mL,> 30 µg/mL,-9.71%,48.9%,-3%,16.5%,
CC(=O)O[C@H]1C(=O)[C@@]2(C)[C@H]([C@H](OC(=O)c3ccccc3)[C@]3(O)C[C@H](OC(=O)[C@H](O)[C@@H](NC(=O)c4ccccc4)c4ccccc4)C(C)=C1C3(C)C)[C@]1(OC(C)=O)CO[C@@H]1C[C@@H]2O [PACLITAXEL],,< 0.0023 µg/mL,0.039 µg/mL,,,0.0023 µg/mL,,,,,,,,,,0.14 µg/mL,,,,,
O=C1CSc2ccccc2N1Cc1cn(Cc2ccc(Br)cc2)nn1,14.14 µg/mL,> 30 µg/mL,> 30 µg/mL,58%,35.5%,> 30 µg/mL,41.3%,49.8%,8.6%,-1.37%,44.78%,> 30 µg/mL,> 30 µg/mL,40.4%,> 30 µg/mL,> 30 µg/mL,-5.96%,38.4%,32.9%,4%,
O=C1CSc2ccccc2N1Cc1cn(Cc2ccc(F)cc2)nn1,14.15 µg/mL,> 30 µg/mL,> 30 µg/mL,73.8%,44.5%,> 30 µg/mL,51.3%,91.3%,17.3%,4.1%,30.9%,1.24 µg/mL,29.2 µg/mL,45.1%,> 30 µg/mL,28.6 µg/mL,12.32%,77.5%,46.3%,31.1%,selectivity ratio [20]: 1.09; selectivity ratio [21]: 1.02
NNC(=O)c1ccncc1 [ISONIAZID],,,,,,,,,,,,0.0025 µg/mL,0.075 µg/mL,,,,,,,,selectivity ratio [20]: 2220; selectivity ratio [21]: 1330
O=C1CSc2ccccc2N1Cc1cn(Cc2cccc(Cl)c2)nn1,45.63 µg/mL,> 30 µg/mL,> 30 µg/mL,8.6%,4.4%,> 30 µg/mL,45.7%,94.2%,-6.3%,3.31%,19.04%,8.03 µg/mL,27.3 µg/mL,52.3%,> 30 µg/mL,> 30 µg/mL,6.38%,66.6%,43.4%,-13.7%,selectivity ratio [20]: 1.05; selectivity ratio [21]: 1.1
O=C1CSc2ccccc2N1Cc1cn(Cc2ccc([N+](=O)[O-])cc2)nn1,27.4 µg/mL,> 30 µg/mL,> 30 µg/mL,9.8%,44.7%,> 30 µg/mL,55.5%,70.6%,10.8%,17.56%,8.43%,9.2 µg/mL,> 30 µg/mL,36.5%,> 30 µg/mL,> 30 µg/mL,0%,52.9%,53.2%,12.9%,selectivity ratio [20]: 1.02; selectivity ratio [21]: 1
O=C1CSc2ccccc2N1Cc1cn(Cc2ccccc2)nn1,36.26 µg/mL,> 30 µg/mL,> 30 µg/mL,-15.4%,-10.8%,> 30 µg/mL,39.6%,82.2%,0%,-9.82%,25.91%,9.11 µg/mL,> 30 µg/mL,0%,> 30 µg/mL,> 30 µg/mL,-7.85%,59.3%,8.8%,-37.2%,
O=C1CSc2ccccc2N1Cc1cn(Cc2ccccc2Cl)nn1,16.35 µg/mL,> 30 µg/mL,> 30 µg/mL,41.9%,31.4%,> 30 µg/mL,55.9%,37.8%,15.4%,-8.41%,23.34%,> 30 µg/mL,> 30 µg/mL,48.1%,> 30 µg/mL,> 30 µg/mL,4.19%,74.9%,38.6%,29.6%,
O=C1CSc2ccccc2N1Cc1cn(-c2ccc([N+](=O)[O-])cc2)nn1,44.29 µg/mL,> 30 µg/mL,> 30 µg/mL,24.2%,0%,> 30 µg/mL,35.8%,28.5%,0%,24.73%,38.71%,> 30 µg/mL,> 30 µg/mL,13.3%,> 30 µg/mL,> 30 µg/mL,33.22%,0.3%,-0.9%,0%,
O=C1CSc2ccccc2N1Cc1cn(-c2cccc([N+](=O)[O-])c2)nn1,47.11 µg/mL,> 30 µg/mL,> 30 µg/mL,25.7%,29.7%,> 30 µg/mL,37.5%,1.2%,17.2%,0.19%,22.02%,> 30 µg/mL,> 30 µg/mL,11.9%,> 30 µg/mL,> 30 µg/mL,12.32%,8.7%,13.3%,25.4%,
O=C1CSc2ccccc2N1Cc1cn(Cc2ccc(Cl)cc2)nn1,44.29 µg/mL,29.9 µg/mL,> 30 µg/mL,52.1%,61.5%,27.3 µg/mL,45.1%,65.8%,35%,4.35%,51.91%,2.67 µg/mL,> 30 µg/mL,41.9%,> 30 µg/mL,> 30 µg/mL,3.6%,75.3%,29.6%,40.9%,
CO[C@H]1/C=C/O[C@@]2(C)Oc3c(C)c(O)c4c(O)c(c(/C=N/N5CCN(C)CC5)c(O)c4c3C2=O)NC(=O)/C(C)=C\C=C\[C@H](C)[C@H](O)[C@@H](C)[C@@H](O)[C@@H](C)[C@H](OC(C)=O)[C@@H]1C [RIFAMPIN],,,,,,,,,,,,,0.043 µg/mL,,,,,,,,selectivity ratio [20]: 2440; selectivity ratio [21]: 2330
